# Laboratory results published in patent US11913944B2, “Photoaffinity probes” (Promega Corporation, priority 2019, dated 2024).
# Key:
# [1] = Influence of UV irradiation on fluorescence intensity of SAHA-fluorophore conjugates; format: physicochemical; conditions: UV irradiated 0-30 minutes; HEK293T cells expressing HDAC6-NANOLUC fusion
# Description: During development of the BRET approach described herein for estimating crosslinking efficiency, experiments were conducted to determine the influence of UV irradiation on the bioluminescent intensity of the energy donor NANOLUC, and the fluorescence intensity of three fluorophores that can be used as energy acceptors (FIGS. 12-15). The model system for these experiments (FIG. 13) was the interaction between HDAC6 fused to NANOLUC and SAHA (vorinostat), which binds to HDAC6 and was conjugated to one of three fluorophores NCT, TAMRA, and BODIPY576 (FIG. 12). In these experiments HEK293T cells transiently expressing HAD6-NANOLUC fusion were treated for 2 hours with serial dilution of SAHA-fluorophore conjugate, then UV irradiated for 0-30 minutes and subsequently treated with NANOGLO detection reagent. […] Thus, NANOLUC and NCT were chosen as a BRET donor and acceptor pair for the assays estimating photocrosslinking efficiency.
# [2] = tested on: STAT5 reporter; assay: STAT5 reporter expression in K-562 cells; format: cell-based; conditions: Homo sapiens, K562; K-562 cells transiently expressing a STAT5 reporter, 24 hours; read-out: IC50, inhibited expression of a STAT5 reporter
# Description: Dasatinib is a broad kinase inhibitor targeting the BCR-ABL oncogenic pathway, thereby reducing the downstream activation of STAT5. K-562 cells transiently expressing a STAT5 reporter (2×10^5 cells/mL) were treated with serial dilution of dasatinib or a derivative having cleavable chloroalkane tag (+/−a PRG) for 24 hours and then tested for expression of the STAT5 reporter.
Fluorescence intensity under UV irradiation [1],IC50 [2] [pM],Compound
decreased the fluorescence intensity,–,O=C(CCCCCCC(=O)Nc1ccc(CNC(=O)CCc2ccc3n2[B-](F)(F)[N+]2=C(c4ccc[nH]4)C=CC2=C3)cc1)NO [SAHA-BODIPY576]
not significantly affected,–,O=C(CCCCCCC(=O)Nc1ccc(CNC(=O)c2ccc(C(=O)O)c(C3=c4cc5c6c(c4Oc4c3cc3c7c4CCCN7CCCC3)CCC[N+]=6CCCC5)c2)cc1)NO [SAHA-NCT]
–,400,Cc1nc(Nc2ncc(C(=O)Nc3c(C)cccc3Cl)s2)cc(N2CCN(CCO)CC2)n1 [dasatinib]
decreased the fluorescence intensity,–,CN(C)c1ccc2c(-c3cc(C(=O)NCc4ccc(NC(=O)CCCCCCC(=O)NO)cc4)ccc3C(=O)O)c3ccc(=[N+](C)C)cc-3oc2c1 [SAHA-TMR]
